Reference: publication PMC11477289, “Low-Basicity 5-HT6 Receptor Ligands from the Group of Cyclic Arylguanidine Derivatives and Their Antiproliferative Activity Evaluation” (International Journal of Molecular Sciences, 2024)

Columns and labels:
PAMPA permeability test = assay type: in vitro ADME
Experimental: This test allows the determination of the compound’s passive diffusion through biological membranes.
Precoated PAMPA Plate System Gentest was obtained from Corning (Tewksbury, MA, USA). Test compounds and caffeine solutions (200 µM) were prepared in a PBS buffer (pH = 7.4) and then added to the PAMPA plate. The plate was incubated at room temperature for 5 h without agitation. Then, 150 µL was aspirated from both acceptor (A) and donor (D) wells and then diluted with a 150 µL internal standard (IS) solution. The concentrations of the tested compounds in wells A and D were estimated using an LC/MS Waters ACQUITY™ TQD system with a TQ detector (Waters, Milford, CT, USA). The values of Pe were estimated according to the exact formulas provided by Corning and previously described in the literature.
4. Absorption – PAMPA permeability test
*Permeability coefficient. Compound is permeable if Pe≥1.5×10-6 cm/s
**CFN = caffeine, well-permeable control
UPLC of Caffeine solution in PBS (pH=7.4) after 5h of incubation: acceptor well
(above), donor well (below). IS – internal standard.
UPLC of PR 68 solution in PBS (pH=7.4) after 5h of incubation: acceptor well (above),
donor well (below). IS – internal standard. […]

CYP2D6 = target: T1, CYP2D6 (Homo sapiens, UniProt P10635); assay: CYP2D6 P450-Glo assay (drug–drug interactions); assay type: biochemical; conditions: 0.01–25 µM
T1 construct: purchased Promega
T1 sequence (P10635 whole entry): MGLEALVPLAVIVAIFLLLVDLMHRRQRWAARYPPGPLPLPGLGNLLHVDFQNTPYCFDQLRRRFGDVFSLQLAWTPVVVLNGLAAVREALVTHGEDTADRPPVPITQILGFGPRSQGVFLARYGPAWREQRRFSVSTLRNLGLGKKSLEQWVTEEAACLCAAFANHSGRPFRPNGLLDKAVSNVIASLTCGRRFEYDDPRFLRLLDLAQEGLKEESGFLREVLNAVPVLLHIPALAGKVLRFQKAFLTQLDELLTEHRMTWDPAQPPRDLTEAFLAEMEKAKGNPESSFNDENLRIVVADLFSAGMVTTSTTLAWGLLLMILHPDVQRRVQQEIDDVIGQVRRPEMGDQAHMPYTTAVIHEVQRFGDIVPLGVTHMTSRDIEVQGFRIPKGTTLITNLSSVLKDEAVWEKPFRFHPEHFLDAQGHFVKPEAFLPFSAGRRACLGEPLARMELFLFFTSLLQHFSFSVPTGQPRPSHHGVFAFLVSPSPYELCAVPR
Experimental: The potential risk of drug–drug interactions (DDIs) was examined in luminescence-based CYP3A4 and CYP2D6 P450-Glo assays (Promega, Madison, WI, USA) (Figure 2A,B).
The influence on CYP3A4 and CYP2D6 activity by ligands was analyzed with luminescent CYP3A4 P450-Glo and CYP2D6 P450-Glo^TM (Madison, WI, USA). The compounds were tested in triplicate. The bioluminescence signal was measured with a microplate reader, Spark Cyto (Tecan, Männedorf, Switzerland), in the luminescence mode. Compounds were tested in triplicate in the range of 0.01–25 µM for both isoforms’ P450 cytochrome. KE and QD were used as the reference compounds for CYP3A4 and CYP2D6, respectively.

[1] = tested on: HepG2 human hepatoma cell line; assay: Hepatotoxicity, MTS assay; assay type: cell-based; conditions: 1–10 µM, 48 h
Experimental: The safety profile was estimated in the hepatotoxicity assay in the hepatoma HepG2 cell line (Figure 2B).
Hepatotoxicity was evaluated employing an MTS assay with a HepG2 human hepatoma cell line (ATCC: HB-8065). In brief, the cells were incubated for 48 h in 96-well plates with PR 68 (concentration range: 1–100 μM), or doxorubicin (DX, 1 µM; Sigma-Aldrich), which served as a control. Compounds were tested in a single experiment in quadruplicate. The absorbance in the MTS assay was measured by the Spark Cyto microplate reader (Tecan, Männedorf, Switzerland).

HSA and AGP (24:1) = assay: Plasma protein binding, TRANSIL XL PPB assay; conditions: human, TRANSIL XL PPB assay: HSA and AGP in a 24:1 ratio

For CC1NC(NS(=O)(=O)c2cccc3ccccc23)=Nc2cccc(Cl)c21 (stereo not shown) [PR 68, N -(5-chloro-4-methyl-3,4-dihydroquinazolin-2-yl)naphthalene-1-sulfonamide], the “membrane retention R” value (PAMPA permeability test; PAMPA) was 0.65, the Papp at 5 h, 200 µM (PAMPA permeability test; PAMPA, PBS pH 7.4, 5 h, room temperature, read-out: PAMPA Pe) was 1.72 ×10⁻⁶ cm/s and the “PAMPA Pe” value (PAMPA permeability test; PBS pH 7.4, 5 h, room temperature) was 1.72 10^−6 cm/s. For the same compound, the “drug–drug interactions, CYP2D6 activity” value (CYP2D6) was “should not exhibit drug–drug interactions”, the “hepatotoxicity, HepG2 viability” value [1] was “did not exhibit hepatotoxic properties” and the Kd at 12 min, 20 µM (HSA and AGP (24:1)) was 1400 nM. For the same compound, the fraction unbound at 12 min, 20 µM (HSA and AGP (24:1)) was 0.002.
